The record followed here is ChEMBL document CHEMBL1155719, “Synthesis of phakellistatin 11: a micronesia (Chuuk) marine sponge cyclooctapeptide” (2001).

Values after ≈ are worked out from the molar mass of the structure shown. Residues, ends and D or L forms follow the SMILES beside them.

Assay [1] deals with P388. As to the kind of experiment: Cytotoxicity against mouse P388 cells by NMR biological activity study. The assay is classed as functional. The following applies: read-out: ED50 (the source's name).
In assay [2] the test system is P388. As to the kind of experiment: Cytotoxicity against mouse P388 cells. The assay is classed as functional. The following applies: read-out: ED50 (the source's name).

For the compound `CC[C@H](C)[C@@H]1NC(=O)[C@H](CC(C)C)NC(=O)[C@@H]2CCCN2C(=O)[C@H]([C@@H](C)CC)NC(=O)[C@@H]2CCCN2C(=O)[C@H](CO)NC(=O)[C@H](Cc2ccccc2)NC1=O` [STYLOPEPTIDE] (cyclo(FSPIPLI)), the figures for the EC50 in the assay with P388 [1] and in the assay with P388 [2] were 6 µg/mL (≈ 7.81 µM) and 0.1 µg/mL (≈ 0.13 µM), respectively.

Consider `CC[C@H](C)[C@@H]1NC(=O)[C@H](C)NC(=O)[C@H](CC(C)C)NC(=O)[C@H](CO)NC(=O)[C@H](CC(N)=O)NC(=O)[C@H](Cc2ccccc2)NC(=O)[C@@H]2CCCN2C1=O` [STYLOSTATIN 1] (cyclo(AIPFNSL)), for which the EC50 in the assay with P388 [2] was determined as 10 µg/mL (≈ 13.5 µM). On to `CC[C@H](C)[C@@H]1NC(=O)[C@@H]2CCCN2C(=O)[C@H](Cc2ccccc2)NC(=O)[C@@H]2CCCN2C(=O)[C@H](Cc2ccc(O)cc2)NC(=O)[C@@H]2CCCN2C(=O)[C@H]([C@@H](C)CC)NC1=O.Cl` [PHAKELLISTATIN 2 (SYNTHETIC)] (cyclo(FPIIPYP)), for which the EC50 with P388 [2] was determined as 24 µg/mL. The same measure, in the same setting: as for `CC[C@H](C)[C@@H]1NC(=O)[C@@H]2CCCN2C(=O)[C@H](Cc2ccccc2)NC(=O)[C@@H]2CCCN2C(=O)[C@H](Cc2ccc(O)cc2)NC(=O)[C@@H]2CCCN2C(=O)[C@H]([C@@H](C)CC)NC1=O` [PHAKELLISTATIN 2] (cyclo(FPIIPYP)), the figure is 0.34 µg/mL (≈ 0.411 µM).
